Data: US5981577A, “α-methylene peperomins and halogenated derivatives thereof” (Development Center for Biotechnology, priority 1998, dated 1999)
≈ marks a conversion by molar mass, not a printed value. Read-outs that look alike come from different tables or passages of the source.

Columns and labels:
[1] = test system: HA22T; assay: in vitro cytotoxicity by the MTT assay, HA22T; format: cell-based, human; settings: 72 h
Method: (§1) Compounds 1-9 were evaluated for in vitro cytotoxicity by the MTT assay, against four types of human tumor cell lines, including COLO 205, HA22T, SKBR3, and MOLT-4.
(§2) COLO 205 was grown as a monolayer in RPMI 1640 (Gibco) with 10% fetal serum (FBS, Hyclon). HA22T/VGH was grown as a monolayer in DMEM/F12 medium (Gibco) supplemented with 10% FBS and […] nonessential amino acid (Gibco, BRL). SKBr3 was grown as a monolayer in DMEM/F12 medium (Gibco) with 10% FCS and 1% penicillin/streptomycin (Gibco, BRL). MOLT-4 was grown as a suspension cell line in RPMI 1640 supplemented with 10% FCS and 1% penicillin/streptomycin (Gibco, BRL). Exponentially growing cell cultures were maintained in a humidified incubator (NAPCO, Model 5410) with an atmosphere of 5% CO2 -95% air at 37° C.
(§3) In principle, the assay is dependent on the cellular reduction of MTT (Sigma Chemical Co.) by the mitochondrial dehydrogenase of viable cells to a dark blue formazan product. The viable cell number is directly proportional to the production of formazan, which can be measured spectrophotometrically following solubilization.
(§4) Single cell suspensions were obtained by mechanical disaggregation of the floating cell line (MOLT-4) and by trypsinization of the monolayer cultures (COLO 205, HA22T/VGH, SKBr3) and counted by trypan blue exclusion. The cell suspensions (180 μl) were added into 96-well microtiter plates (Nunc 67008) using a multichannel pipette, and the incubation was allowed for 24 h.
(§5) Each test compound was dissolved in a 10% DMSO (Sigma, D-8779) and 90% DPBS solution. 20 μl of this solution was dispensed to each microtiter plate well, and diluted to give final concentrations ranging from 100 μg/ml to 0.01 μg/ml by 10-fold dilutions. The cells were then incubated in the presence of the drug (the test compound) for a further 72 h. At the end of this time, 20 μl of a MTT solution (5 mg/ml) was added to each well and the incubation was allowed a further 4 h. After this time, the culture plates containing suspension lines or any detached cells were centrifuged at a low speed of 1000 rpm for 5 min. 170 μl of the culture medium supernatant was removed from each well and replaced by 200 μl of DMSO. After the solubilization of formazans, the optical density was then read by an automated spectrophotometric plate reader (ELISA, Molecular Device Emax) at a wavelength of 545-690 nm. Readings were transferred to a microcomputer and final reports were generated using especially developed software.

[2] = test system: MOLT-4; assay: in vitro cytotoxicity by the MTT assay, MOLT-4; format: cell-based, human
Method: as §1, §2, §3, §4, §5

[3] = test system: SKBR3; assay: in vitro cytotoxicity by the MTT assay, SKBR3; format: cell-based, human
Method: as §1, §2, §3, §4, §5

[4] = test system: COLO 205; assay: in vitro cytotoxicity by the MTT assay, COLO 205; format: cell-based, human
Method: as §1, §2, §3, §4, §5

[5] = test system: leukemia cells; settings: versus other solid tumor cells; cited from earlier work
[6] = Homo sapiens, MTT, read-out: IC50
[7] = Homo sapiens, MOLT-4, MTT, 72 h, read-out: IC50
[8] = Homo sapiens, SK-BR-3, SKBR3, MTT, 72 h, read-out: IC50
[9] = Homo sapiens, COLO 205, MTT, 72 h, read-out: IC50

2-Bromomethyl-3-[1-(2(or 6)-bromo-3,4-methylenedioxy)-phenyl-1'-(2-bromo-3,4,5-trimethoxy)phenyl]methyl γ-butyrolactone [Compound 9]
IC50 ([1]; MTT): 5.7 µg/mL | IC50 ([2]; MOLT-4, MTT, 72 h): 5.8 µg/mL | IC50 ([3]; SKBR3, MTT, 72 h): 4.5 µg/mL | IC50 ([4]; COLO 205, MTT, 72 h): 5.6 µg/mL

2-Methylene-3-[1-(2(or 6)-bromo-3,4-methylenedioxy)-phenyl-1'-(2-bromo-3,4,5-trimethoxy)phenyl]methyl γ-butyrolactone [Compound 5]
IC50 ([1]; MTT): 5.9 µg/mL | IC50 ([2]; MOLT-4, MTT, 72 h): 3.9 µg/mL | IC50 ([3]; SKBR3, MTT, 72 h): 5.3 µg/mL | IC50 ([4]; COLO 205, MTT, 72 h): 6.8 µg/mL

COc1cc(C(c2cc(OC)c(OC)c(OC)c2Br)[C@H]2COC(=O)[C@@H]2CBr)c(Br)c(OC)c1OC (relative stereo) [Compound 2, 2-Bromomethyl-3-[bis(2-bromo-3,4,5-trimethoxy)phenyl]-methyl γ-butyrolactone]
IC50 [1, 6]: 6.6 µg/mL (≈ 9.66 µM) | IC50 [2, 7]: 3.1 µg/mL (≈ 4.54 µM) | IC50 [3, 8]: 3.7 µg/mL (≈ 5.42 µM) | IC50 [4, 9]: 5 µg/mL (≈ 7.32 µM)

COc1cc(C(c2cc(OC)c(OC)c(OC)c2Br)[C@@H]2COC(=O)[C@@H]2CBr)c(Br)c(OC)c1OC (relative stereo) [Compound 4, 2-Bromomethyl-3-[bis(2-bromo-3,4,5-trimethoxy)phenyl]-methyl γ-butyrolactone]
IC50 [1, 6]: 6.4 µg/mL (≈ 9.37 µM) | IC50 [2, 7]: 4.9 µg/mL (≈ 7.17 µM) | IC50 [3, 8]: 4.9 µg/mL (≈ 7.17 µM) | IC50 [4, 9]: 4.2 µg/mL (≈ 6.15 µM)

C=C1C(=O)OCC1C(c1cc(OC)c(OC)c(OC)c1)c1cc(OC)c(OC)c(OC)c1 (stereo not drawn) [Compound 1, 2-Methylene-3-[bis(3,4,5-trimethoxy)phenyl]methyl γ-butyrolactone]
IC50 [1, 6]: 7.1 µg/mL (≈ 16 µM) | IC50 [2, 7]: 2.8 µg/mL (≈ 6.3 µM) | IC50 [3, 8]: 4 µg/mL (≈ 9 µM) | IC50 [4, 9]: 2.3 µg/mL (≈ 5.17 µM)

C=C1C(=O)OCC1C(c1ccc2c(c1)OCO2)c1cc(OC)c(OC)c(OC)c1 (stereo not drawn) [Compound 3, 2-Methylene-3-[1-(3,4-methylenedioxy)phenyl-1'-(3,4,5-trimethoxy)phenyl]methyl γ-butyrolactone]
IC50 [1, 6]: 6.4 µg/mL (≈ 16.1 µM) | IC50 [2, 7]: 4.3 µg/mL (≈ 10.8 µM) | IC50 [3, 8]: 4.6 µg/mL (≈ 11.5 µM) | IC50 [4, 9]: 5.8 µg/mL (≈ 14.6 µM)

C=C1C(=O)OCC1C(c1cc(OC)c(OC)c(OC)c1Br)c1cc(OC)c(OC)c(OC)c1Br (stereo not drawn) [Compound 6, 2-Methylene-3-[bis(2-bromo-3,4,5-trimethoxy)phenyl]methyl γ-butyrolactone]
IC50 [1, 6]: 5.9 µg/mL (≈ 9.8 µM) | IC50 [2, 7]: 4.3 µg/mL (≈ 7.14 µM) | IC50 [3, 8]: 3.7 µg/mL (≈ 6.14 µM) | IC50 [4, 9]: 6.7 µg/mL (≈ 11.1 µM)

C=C1C(=O)OCC1C(c1cc(OC)c(OC)c(OC)c1)c1cc(OC)c2c(c1)OCO2 (stereo not drawn) [Compound 7, 2-Methylene-3-[1-(3,4-methylenedioxy-5-methoxy)phenyl-1'-(3,4,5-trimethoxy)phenyl]methyl γ-butyrolactone]
IC50 [1, 6]: 7.1 µg/mL (≈ 16.6 µM) | IC50 [2, 7]: 3 µg/mL (≈ 7 µM) | IC50 [3, 8]: 4.6 µg/mL (≈ 10.7 µM) | IC50 [4, 9]: 4.4 µg/mL (≈ 10.3 µM)

COc1cc(C(c2cc(OC)c3c(c2Br)OCO3)C2COC(=O)C2CBr)c(Br)c(OC)c1OC (stereo not drawn) [Compound 8, 2-Bromomethyl-3-[1-(2(or 6)-bromo-3,4-methylenedioxy-5-methoxy)phenyl-1'-(2-bromo-3,4,5-trimethoxy)phenyl]methyl γ-butyrolactone]
IC50 ([1]; MTT): 5.8 µg/mL (≈ 8.69 µM) | IC50 ([2]; MOLT-4, MTT, 72 h): 1.5 µg/mL (≈ 2.25 µM) | IC50 ([3]; SKBR3, MTT, 72 h): 4.3 µg/mL (≈ 6.45 µM) | IC50 ([4]; COLO 205, MTT, 72 h): 6.1 µg/mL (≈ 9.14 µM)

COc1cccc2c1C(=O)c1c(O)c3c(c(O)c1C2=O)C[C@@](O)(C(=O)CO)C[C@@H]3O[C@H]1C[C@H](N)[C@H](O)[C@H](C)O1 [DOXORUBICIN, reference compound]
IC50 ([1]; Homo sapiens): 0.2 µg/mL (≈ 0.368 µM) | IC50 ([2]; Homo sapiens, MOLT-4, 72 h): 0.01 µg/mL (≈ 0.0184 µM) | hypersensitivity to MOLT-4 leukemia cell line ([2]; as compared to other solid tumor cells): hypersensitivity towards leukemia cells as compared to other solid tumor cells | hypersensitivity towards leukemia cells [5]: hypersensitivity towards leukemia cells versus other solid tumor cells | IC50 ([3]; Homo sapiens, SK-BR-3, 72 h): 0.1 µg/mL (≈ 0.184 µM) | IC50 ([4]; Homo sapiens, COLO 205, 72 h): 0.2 µg/mL (≈ 0.368 µM)
